In publication PMC11555526, “Development of 2-Aminoadenine-Based Proteolysis-Targeting Chimeras (PROTACs) as Novel Potent Degraders of Monopolar Spindle 1 and Aurora Kinases” (ACS Pharmacology & Translational Science, 2024):
Like-named read-outs stand apart in the source and are kept apart here.

Key:
[1] = target: T1, TTK (MV4-11^HiBiT-TTK cells) (Homo sapiens, UniProt P33981); experiment: HiBiT assay, TTK degradation; type: cell-based; parameters: key to Dmax (maximal degradation) TTK: compounds with degradation less than 15% reported as “inactive”; details: 6 h treatment, MV4-11^HiBiT-TTK cells; for DC50: read-out: DC50 (half-maximal degradation concentration) TTK; for Dmax: read-out: Dmax (maximal degradation) TTK
T1 construct: expressed in transfected cells; host or cells: MV4-11, lentiviral transduction (pRRL-PGK-HiBiT entry vector)
T1 sequence (P33981 1-857): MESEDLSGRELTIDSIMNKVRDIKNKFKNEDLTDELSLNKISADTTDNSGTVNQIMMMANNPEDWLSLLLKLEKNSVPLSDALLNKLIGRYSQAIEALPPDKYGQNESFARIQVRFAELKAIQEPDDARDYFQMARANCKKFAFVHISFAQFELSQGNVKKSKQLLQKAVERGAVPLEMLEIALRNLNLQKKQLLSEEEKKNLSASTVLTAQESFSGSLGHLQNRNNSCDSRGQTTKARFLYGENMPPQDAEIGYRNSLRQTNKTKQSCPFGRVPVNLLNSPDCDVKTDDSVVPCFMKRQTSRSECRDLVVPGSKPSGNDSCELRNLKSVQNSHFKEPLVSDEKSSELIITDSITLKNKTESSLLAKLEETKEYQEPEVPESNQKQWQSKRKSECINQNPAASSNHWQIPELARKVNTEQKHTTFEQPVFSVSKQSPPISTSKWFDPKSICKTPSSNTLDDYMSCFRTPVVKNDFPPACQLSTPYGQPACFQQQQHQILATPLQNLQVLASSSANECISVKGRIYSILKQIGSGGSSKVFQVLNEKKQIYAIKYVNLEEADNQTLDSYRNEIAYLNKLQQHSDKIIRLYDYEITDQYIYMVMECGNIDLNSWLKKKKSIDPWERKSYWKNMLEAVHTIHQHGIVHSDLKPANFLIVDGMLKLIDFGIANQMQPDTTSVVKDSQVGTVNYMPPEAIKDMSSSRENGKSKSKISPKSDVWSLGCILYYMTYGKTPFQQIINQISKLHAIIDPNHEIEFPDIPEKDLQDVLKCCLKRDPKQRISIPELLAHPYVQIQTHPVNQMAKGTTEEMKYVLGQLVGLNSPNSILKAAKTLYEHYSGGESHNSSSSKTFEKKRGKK
Protocol: (§1) The effects of the synthesized compounds on AURKA, AURKB, and TTK mitotic kinases were then assessed in cellular systems. For this, HiBiT cell lines were generated for all three mitotic kinases. A small 11 amino acid peptide fragment of luciferase (HiBiT) was fused to the coding sequence of the proteins and stably transduced in the MV4-11 cell line (MV4-11^AURKA-HiBiT, MV4-11^AURKB-HiBiT, and MV4-11^HiBiT-TTK).
(§2) The stable cell lines MV4-11^AURKA-HiBiT, MV4-11^AURKB-HiBiT, and MV4-11^HiBiT-TTK cells were generated by lentiviral infection. Lentivirus was produced using the respective HiBiT vector, plasmids psPAX2, and pMD2.G in HEK293 cells. The virus supernatant was filtered and MV4-11 cells were doubly infected with the supernatant. The cells were selected after 48 h of infection until the control cells were dead to get the stable cell line.
(§3) The cells stably expressing HiBiT-tagged protein were seeded into 96-well plates and treated with serial dilutions of compounds for the indicated time points. At the end point, the assay was performed using the Nano-Glo HiBiT Lytic Detection System (Promega) according to the manufacturer’s instruction. Luminescence was measured on a GloMax 96 Microplate Luminometer (Promega) or a Tecan Spark Multiplate reader (Tecan). DC50 was calculated using concentrations showing sigmoidal behavior with the dose–response (four parameters) equation in Prism (GraphPad).

[2] = target: T2, AURKB (MV4-11^AURKB-HiBiT cells) (Homo sapiens, UniProt Q96GD4); experiment: HiBiT assay, AURKB degradation; type: cell-based; parameters: key to Dmax (maximal degradation) AURKB: compounds with degradation less than 15% reported as “inactive”; details: 6 h treatment; for DC50: read-out: DC50 (half-maximal degradation concentration) AURKB; for Dmax: read-out: Dmax (maximal degradation) AURKB
T2 construct: expressed in transfected cells; host or cells: MV4-11, lentiviral transduction (pRRL-PGK vector)
T2 sequence (Q96GD4 1-345 isoform Q96GD4-5): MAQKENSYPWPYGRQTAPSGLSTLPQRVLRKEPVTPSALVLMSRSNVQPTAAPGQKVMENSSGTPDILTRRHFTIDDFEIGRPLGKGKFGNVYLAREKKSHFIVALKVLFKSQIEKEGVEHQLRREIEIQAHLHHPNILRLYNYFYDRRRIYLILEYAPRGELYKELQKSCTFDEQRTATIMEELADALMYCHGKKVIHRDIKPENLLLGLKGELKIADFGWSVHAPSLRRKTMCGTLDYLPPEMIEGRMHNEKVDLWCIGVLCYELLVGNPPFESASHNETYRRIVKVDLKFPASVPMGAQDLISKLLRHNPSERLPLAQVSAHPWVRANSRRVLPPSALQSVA
Protocol: as §1, §2, §3

[3] = target: T3, AURKA (MV4-11^AURKA-HiBiT cells) (Homo sapiens, UniProt O14965); experiment: HiBiT assay, AURKA degradation; type: cell-based; details: 6 h treatment, MV4-11^AURKA-HiBiT cells; for DC50: read-out: DC50 (half-maximal degradation concentration) AURKA; for Dmax: read-out: Dmax (maximal degradation) AURKA
T3 construct: expressed in transfected cells; host or cells: MV4-11, lentiviral transduction
T3 sequence (O14965 1-403): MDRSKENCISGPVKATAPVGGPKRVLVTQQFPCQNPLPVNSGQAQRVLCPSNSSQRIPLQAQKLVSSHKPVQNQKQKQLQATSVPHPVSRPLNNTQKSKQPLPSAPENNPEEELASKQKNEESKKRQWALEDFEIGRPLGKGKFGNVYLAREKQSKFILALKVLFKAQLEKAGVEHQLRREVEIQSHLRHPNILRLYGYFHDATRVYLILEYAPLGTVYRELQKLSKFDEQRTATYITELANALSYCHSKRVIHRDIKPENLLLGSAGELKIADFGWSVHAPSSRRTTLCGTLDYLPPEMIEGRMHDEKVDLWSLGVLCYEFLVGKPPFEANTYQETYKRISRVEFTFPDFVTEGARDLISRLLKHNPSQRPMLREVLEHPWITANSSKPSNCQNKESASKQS
Protocol: as §1, §2, §3

MV4-11 cells (naive) = experiment: alamarBlue cell viability assay; type: cell-based, human; details: 72 h treatment, MV4-11 cells (naive); for EC50: read-out: EC50 (concentration that decreases cell viability by 50%)
Protocol: Finally, to study the effect of the compounds on cancer cell survival, MV4-11 cells were treated with various concentrations of the chimeras and the cell viability was assessed after 72 h. […] As opposed to the parent inhibitor MPS1-IN-3, its derivatives except 40 were not cytotoxic (Figure S7B, Table 5). […] In addition, most of the SF1-based derivatives affected the viability of MV4-11 cells in nanomolar concentrations (Table 5).
For the alamarBlue cell viability assay, cells were seeded in 96-well plates and treated with indicated concentrations of the compounds or vehicle. A few hours before the experimental end point (72 h, unless otherwise stated), the cells were incubated with the alamarBlue reagent. Finally, fluorescence (excitation: 550 nm and emission: 600 nm) or absorbance (570 nm with reference at 600 nm) was measured on a Tecan Spark Multiplate reader (Tecan).

Row | SMILES | Dmax (maximal degradation) TTK [1] | Dmax (maximal degradation) AURKB [2] | Dmax (maximal degradation) AURKA [3] | EC50 (MV4-11 cells (naive)) | DC50 [1] | DC50 [2] | DC50 [3] | Dmax [1] | Dmax [2] | Dmax [3] | EC50 (MV4-11 cells (naive); Homo sapiens) | DC50 (half-maximal degradation concentration) TTK [1] | DC50 (half-maximal degradation concentration) AURKB [2] | DC50 (half-maximal degradation concentration) AURKA [3] | EC50 (concentration that decreases cell viability by 50%) (MV4-11 cells (naive))
1 | CC(C)S(=O)(=O)c1ccccc1Nc1nc(Nc2ccc(N3CCN(C(=O)CNC(=O)CCCC(=O)Nc4cccc5c4C(=O)N(C4CCC(=O)N(C)C4=O)C5=O)CC3)cc2)nc2[nH]cnc12 (centres unmarked) [Compound 24] | 16.95% | 20.40% | 17.00% | 0.618 µM | – | – | – | – | – | – | – | – (compounds with degradation less than 25% were not calculated and reported as “–”) | – (compounds with degradation less than 25% were not calculated and reported as “–”) | – (compounds with degradation less than 25% were not calculated and reported as “–”) | –
2 | CC(C)S(=O)(=O)c1ccccc1Nc1nc(Nc2ccc(N3CCN(CCCC(=O)Nc4cccc5c4C(=O)N(C4CCC(=O)NC4=O)C5=O)CC3)cc2)nc2[nH]cnc12 (centres unmarked) [Compound 27] | 52.95% | 48.90% | 75.10% | 0.091 µM | 0.0891 µM | 0.27 µM | 0.0048 µM | – | – | – | – | – | – | – | –
3 | Cc1ncsc1-c1ccc(CNC(=O)[C@@H]2C[C@@H](O)CN2C(=O)[C@@H](NC(=O)CCCC(=O)NCC(=O)N2CCN(c3ccc(Nc4nc(Nc5ccccc5S(=O)(=O)C(C)C)c5nc[nH]c5n4)cc3)CC2)C(C)(C)C)cc1 [Compound 46] | inactive | 29.40% | 57.90% | 1.98 µM | – | 0.466 µM | 0.772 µM | – | – | – | – | – (compounds with degradation less than 25% were not calculated and reported as “–”) | – | – | –
4 | CC(C)S(=O)(=O)c1ccccc1Nc1nc(Nc2ccc(N3CCN(C(=O)CCC(=O)NCCNc4cccc5c4C(=O)N(C4CCC(=O)NC4=O)C5=O)CC3)cc2)nc2[nH]cnc12 (centres unmarked) [Compound 30] | 27.20% | 19.90% | 49.10% | 0.405 µM | 0.468 µM | – | 0.017 µM | – | – | – | – | – | – (compounds with degradation less than 25% were not calculated and reported as “–”) | – | –
5 | COc1cc(N2CCC(OCC(=O)N3CCN(c4cccc5c4C(=O)N(C4CCC(=O)NC4=O)C5=O)CC3)CC2)ccc1Nc1nc(Nc2ccccc2S(=O)(=O)C(C)C)c2nc[nH]c2n1 (centres unmarked) [Compound 40] | 23.00% | 43.70% | 41.60% | 0.836 µM | – | 1.68 µM | 0.282 µM | – | – | – | – | – (compounds with degradation less than 25% were not calculated and reported as “–”) | – | – | –
6 | Cc1ncsc1-c1ccc(CNC(=O)[C@@H]2C[C@@H](O)CN2C(=O)[C@@H](NC(=O)CCC(=O)NCCNC(=O)CCC(=O)N2CCN(c3ccc(Nc4nc(NC5CCCCC5)c5nc[nH]c5n4)cc3)CC2)C(C)(C)C)cc1 [Compound 55] | 28.40% | inactive | 28.30% | 6.91 µM | 5.65 µM | – | 9.84 µM | – | – | – | – | – | – (compounds with degradation less than 25% were not calculated and reported as “–”) | – | –
7 | COc1cc(N2CCN(C(=O)CNC(=O)CCCC(=O)Nc3cccc4c3C(=O)N(C3CCC(=O)NC3=O)C4=O)CC2)ccc1Nc1nc(Nc2ccccc2S(=O)(=O)C(C)C)c2nc[nH]c2n1 (centres unmarked) [Compound 21] | 41.90% | inactive | 59.30% | – | 0.026 µM | – | 0.056 µM | – | – | – | – | – | – (compounds with degradation less than 25% were not calculated and reported as “–”) | – | — (compounds with decrease of cell viability less than 50% were not calculated and reported as “—”)

Continued, in another order:

Row | Dmax (maximal degradation) TTK [1] | Dmax (maximal degradation) AURKB [2] | Dmax (maximal degradation) AURKA [3] | EC50 (MV4-11 cells (naive)) | DC50 [1] | DC50 [2] | DC50 [3] | Dmax [1] | Dmax [2] | Dmax [3] | EC50 (MV4-11 cells (naive); Homo sapiens) | SMILES | DC50 (half-maximal degradation concentration) TTK [1] | DC50 (half-maximal degradation concentration) AURKB [2] | DC50 (half-maximal degradation concentration) AURKA [3] | EC50 (concentration that decreases cell viability by 50%) (MV4-11 cells (naive))
8 | – | – | – | – | 1.27 µM | 0.993 µM | 0.274 µM | 88.8% | 70.2% | 61.9% | 0.028 µM | CC(C)S(=O)(=O)c1ccccc1Nc1nc(Nc2ccc(N3CCNCC3)cc2)nc2[nH]cnc12 [SF1] | – | – | – | –
9 | – | – | – | – | 0.118 µM | 0.0793 µM | 0.0995 µM | 47.7% | 44.5% | 52.6% | 0.123 µM | c1nc2c(NC3CCCCC3)nc(Nc3ccc(N4CCNCC4)cc3)nc2[nH]1 [azareversine, reference compound] | – | – | – | –
10 | 28.90% | 33.40% | 34.80% | 0.057 µM | 0.205 µM | 2.69 µM | 0.119 µM | – | – | – | – | CC(C)S(=O)(=O)c1ccccc1Nc1nc(Nc2ccc(N3CCN(CC(=O)Nc4cccc5c4C(=O)N(C4CCC(=O)NC4=O)C5=O)CC3)cc2)nc2[nH]cnc12 (centres unmarked) [Compound 26] | – | – | – | –
11 | – | – | – | – | 1.75 µM | 4.86 µM | 1.93 µM | 29.6% | 40.9% | 40.1% | 2.06 µM | COc1cc(N2CCNCC2)ccc1Nc1nc(Nc2ccccc2S(=O)(=O)C(C)C)c2nc[nH]c2n1 [SF2] | – | – | – | –
